The numbers were not newly measured in US8680094B2, “1, 4-benzoxazine compounds and derivatives thereof as therapeutic drugs for the treatment of neurodegenerative conditions” (Board of Regents, The University of Texas System, priority 2008, dated 2014), which cites them from elsewhere.

Data set [1] has as its system 3-NP-induced mouse model of Huntington's disease. The note with it: earlier work (Chin et al., 2004); cited from earlier work.
Another data set addresses GSK3β (Homo sapiens, UniProt P49841). The note with it: stated for the reference compound, no value; cited from earlier work.
The subject of another data set is cultured neurons. The note with it: Chin et al., 2004, cited from earlier work.

Sequence of GSK3β (P49841 whole entry, species assumed): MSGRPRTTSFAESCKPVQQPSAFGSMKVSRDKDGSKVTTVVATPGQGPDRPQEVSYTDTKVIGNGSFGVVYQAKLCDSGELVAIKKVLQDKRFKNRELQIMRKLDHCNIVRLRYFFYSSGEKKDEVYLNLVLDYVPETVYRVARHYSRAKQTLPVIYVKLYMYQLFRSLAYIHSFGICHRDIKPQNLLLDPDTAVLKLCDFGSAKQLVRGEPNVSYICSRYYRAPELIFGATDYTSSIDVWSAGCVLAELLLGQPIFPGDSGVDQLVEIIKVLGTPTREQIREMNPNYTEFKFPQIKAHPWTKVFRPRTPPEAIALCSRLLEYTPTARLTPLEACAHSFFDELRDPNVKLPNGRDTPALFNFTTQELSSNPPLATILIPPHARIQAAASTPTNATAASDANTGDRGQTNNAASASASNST

Consider `O=C1Nc2ccc(I)cc2C1=Cc1cc(Br)c(O)c(Br)c1` [GW5074, 5-Iodo-3-[(3′,5′-dibromo-4′-hydroxyphenyl)methylene]-2-indolinone], for which, in data set [1], the “behavioral performance in mice administered with 3-nitropropionic acid” value is recorded as “improves behavioral performance” and the “striatal degeneration in mice administered with 3-nitropropionic acid” value is on record as “prevents striatal degeneration”. Further, the “inhibition of GSK3β” value on GSK3β is on record as “inhibits GSK3β weakly”. Further, the “death of cultured neurons induced by a variety of different apoptotic stimuli” value in the data set with cultured neurons is on record as “completely inhibits”. Further, the “toxicity to cultured neurons” value with cultured neurons (at higher concentrations, Johnson et al., 2005, Chen et al., 2008) is reported as “display toxicity”.
